Assay results from patent publication US6416998B1, “Plasmid encoding a modified steroid hormone” (Baylor College of Medicine, priority 1992, dated 2002).
Values belong to the compound of their own block, whether it stands above or below them.

Key:
[1] = molecular target: T1, wild type receptor (hPR-B) (Homo sapiens, UniProt P06401); assay: Yeast transcription assay (β-galactosidase activity); format: cell-based, yeast (Saccharomyces cerevisiae); conditions: 1 μM; for transcriptional activity (in words): 4 hours
T1 construct: expressed in transfected cells; host or cells: Saccharomyces cerevisiae BJ3505 transformed with YEphPR-B
T1 sequence (P06401 1-933): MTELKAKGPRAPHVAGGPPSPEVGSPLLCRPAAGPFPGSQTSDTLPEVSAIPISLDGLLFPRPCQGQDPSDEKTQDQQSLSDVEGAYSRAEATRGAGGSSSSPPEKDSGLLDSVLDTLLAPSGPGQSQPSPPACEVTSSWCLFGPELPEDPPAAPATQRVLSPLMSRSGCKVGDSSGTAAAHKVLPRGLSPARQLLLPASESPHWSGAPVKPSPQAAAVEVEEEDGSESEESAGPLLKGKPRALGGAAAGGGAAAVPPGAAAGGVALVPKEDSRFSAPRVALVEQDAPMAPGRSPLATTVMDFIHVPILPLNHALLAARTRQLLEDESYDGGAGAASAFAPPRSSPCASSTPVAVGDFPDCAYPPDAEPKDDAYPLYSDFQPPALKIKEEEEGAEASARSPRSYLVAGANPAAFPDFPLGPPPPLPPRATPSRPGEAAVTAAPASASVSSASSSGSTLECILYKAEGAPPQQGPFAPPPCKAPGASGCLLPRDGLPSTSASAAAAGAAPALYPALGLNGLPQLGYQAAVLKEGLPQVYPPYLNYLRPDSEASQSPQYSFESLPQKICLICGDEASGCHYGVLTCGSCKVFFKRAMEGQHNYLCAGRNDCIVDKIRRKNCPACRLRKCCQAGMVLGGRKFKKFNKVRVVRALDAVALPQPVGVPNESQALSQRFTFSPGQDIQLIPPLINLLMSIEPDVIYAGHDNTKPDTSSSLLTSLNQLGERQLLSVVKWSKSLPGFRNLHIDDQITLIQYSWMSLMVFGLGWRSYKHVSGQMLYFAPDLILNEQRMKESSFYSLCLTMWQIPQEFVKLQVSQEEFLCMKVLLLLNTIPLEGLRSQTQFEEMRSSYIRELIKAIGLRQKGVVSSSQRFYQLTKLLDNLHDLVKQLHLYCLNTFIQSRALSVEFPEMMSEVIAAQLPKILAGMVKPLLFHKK
Experimental: (§1) Saccharomyces cerevisiae cells containing YEphPRB and the reporter plasmid were grown overnight at 30° C. in minimal media containing 2% glucose. The cells were subcultured in fresh medium and allowed to grow until early mid-log phase (O.D.600nm=1.0). Induction of receptor was initiated by the addition of 100 μM copper sulfate to the culture. Cells were harvested by centrifugation at 1,500 ×g for 10 minutes and resuspended in the appropriate buffer. This and all subsequent steps of analysis of the yeast extracts were done at 4° C.
(§2) When the cell density reached O.D.600nm=1.0, hormones were added to the cultures.
(§3) The plate assays used to identify the receptor mutants are qualitative in nature. To further characterize the properties of UP-1, the activity of the receptor mutants was compared with that of the wild type receptor in a transcription assay. […] The β-galactosidase activity in the cell cytosol was then measured.

[2] = molecular target: T2, UP-1 mutant receptor (hPR) (Homo sapiens, UniProt P06401); assay: as above; format: cell-based; conditions: for transcriptional activity (in words): 1 μM, 4 hours; for activation of mutant receptor: different concentrations (FIG. 5A)
T2 construct: the wild type receptor is truncated by 54 authentic amino acids and 12 novel amino acids are added at the C-terminus; expressed in transfected cells; host or cells: Saccharomyces cerevisiae BJ3505 transformed with the UP-1 plasmid
T2 sequence (P06401 with tags, fused parts or gaps): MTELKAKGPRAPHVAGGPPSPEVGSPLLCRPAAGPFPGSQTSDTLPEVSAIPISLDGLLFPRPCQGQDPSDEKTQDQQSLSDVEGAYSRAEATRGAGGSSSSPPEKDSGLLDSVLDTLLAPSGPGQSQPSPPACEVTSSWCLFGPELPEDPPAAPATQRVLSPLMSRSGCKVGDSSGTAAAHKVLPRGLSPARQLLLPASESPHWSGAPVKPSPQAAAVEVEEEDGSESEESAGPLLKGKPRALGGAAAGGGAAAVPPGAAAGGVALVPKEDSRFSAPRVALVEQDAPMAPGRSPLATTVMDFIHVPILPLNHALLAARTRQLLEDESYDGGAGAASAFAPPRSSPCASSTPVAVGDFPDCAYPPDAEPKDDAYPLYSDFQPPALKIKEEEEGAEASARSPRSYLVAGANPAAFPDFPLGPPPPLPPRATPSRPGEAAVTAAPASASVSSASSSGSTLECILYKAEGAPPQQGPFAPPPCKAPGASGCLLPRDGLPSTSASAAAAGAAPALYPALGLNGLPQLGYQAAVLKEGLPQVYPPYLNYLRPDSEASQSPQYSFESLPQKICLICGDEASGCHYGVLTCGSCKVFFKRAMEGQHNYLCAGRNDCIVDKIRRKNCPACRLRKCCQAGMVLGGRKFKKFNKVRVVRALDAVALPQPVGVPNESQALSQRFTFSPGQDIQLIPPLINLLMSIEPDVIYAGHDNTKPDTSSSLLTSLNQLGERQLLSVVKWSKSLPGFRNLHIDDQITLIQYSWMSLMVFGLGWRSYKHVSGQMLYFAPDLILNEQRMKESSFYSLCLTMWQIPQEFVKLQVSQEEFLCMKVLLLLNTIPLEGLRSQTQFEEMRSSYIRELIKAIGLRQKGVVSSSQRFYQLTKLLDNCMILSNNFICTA
Experimental: as §1, §2, §3

[3] = molecular target: T3, wild type receptor (phPR-B) (Homo sapiens, UniProt P06401); assay: Transient transfection CAT assay in CV-1 cells; format: cell-based, monkey
T3 sequence (P06401 1-933): T1 sequence (P06401 1-933)
Experimental: (§4) Five μg of chloramphenicol acetyltransferase (CAT) reporter plasmid, containing two copies of a PRE/GRE from the tyrosine amino transferase gene linked to the thymidine kinase promoter ([…]), were used in transient cotransfection experiments together with 5 μg of wild type or mutant receptor DNAs.
(§5) CAT assays were performed as described above. In panel (B), CV-1 cells were transiently transfected as in (A).
Cell-type specific factors can influence the activity of the transactivating domains of steroid receptors. In order to evaluate this possibility, wild type and mutant receptors were transfected into CV-1 cells.

891 mutant (phPR-B891) = molecular target: T4, 891 mutant (phPR-B891) (Homo sapiens, UniProt P06401); assay: Transient transfection CAT assay ([…]) in HeLa cells; format: cell-based; conditions: 10^−7M
T4 construct: YEphPRB891, containing a stop codon at amino acid 892; expressed in transfected cells; host or cells: HeLa cells (A16)
T4 sequence (P06401 1-891): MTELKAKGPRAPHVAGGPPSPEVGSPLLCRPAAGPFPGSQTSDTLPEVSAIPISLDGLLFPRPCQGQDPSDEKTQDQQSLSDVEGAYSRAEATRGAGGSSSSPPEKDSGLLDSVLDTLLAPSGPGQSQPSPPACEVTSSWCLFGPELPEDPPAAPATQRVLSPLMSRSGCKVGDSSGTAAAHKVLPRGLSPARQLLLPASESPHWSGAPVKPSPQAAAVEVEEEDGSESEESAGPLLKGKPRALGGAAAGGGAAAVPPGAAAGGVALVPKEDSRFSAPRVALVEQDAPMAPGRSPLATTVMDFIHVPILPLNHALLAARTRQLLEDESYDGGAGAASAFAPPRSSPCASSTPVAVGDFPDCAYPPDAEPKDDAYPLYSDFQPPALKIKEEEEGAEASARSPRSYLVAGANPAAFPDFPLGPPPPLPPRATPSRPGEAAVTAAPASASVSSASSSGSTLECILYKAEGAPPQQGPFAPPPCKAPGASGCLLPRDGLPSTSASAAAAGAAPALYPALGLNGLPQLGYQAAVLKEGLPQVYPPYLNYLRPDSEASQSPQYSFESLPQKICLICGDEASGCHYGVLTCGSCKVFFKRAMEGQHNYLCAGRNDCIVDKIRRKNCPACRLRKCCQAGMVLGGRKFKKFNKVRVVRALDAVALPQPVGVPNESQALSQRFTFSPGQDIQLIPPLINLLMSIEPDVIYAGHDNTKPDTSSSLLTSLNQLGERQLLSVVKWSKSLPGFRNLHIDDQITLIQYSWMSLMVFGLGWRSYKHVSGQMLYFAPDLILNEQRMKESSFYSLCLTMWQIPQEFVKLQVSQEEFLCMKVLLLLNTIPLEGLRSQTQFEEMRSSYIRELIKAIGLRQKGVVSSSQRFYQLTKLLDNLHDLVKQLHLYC
Experimental: as §4, §5

wild type PR (phPR-B) = molecular target: T5, wild type PR (phPR-B) (Homo sapiens, UniProt P06401); assay: as above; format: cell-based; conditions: 10^−7M, 48 hours
T5 sequence (P06401 1-933): T1 sequence (P06401 1-933)
Experimental: as §4, §5

[4] = molecular target: T6, YEphPRB891 truncated receptor (Homo sapiens, UniProt P06401); assay: Yeast transcription assay; format: cell-based
T6 construct: YEphPRB891, containing a stop codon at amino acid 892; expressed in transfected cells; host or cells: Saccharomyces cerevisiae (yeast)
T6 sequence (P06401 1-891): T4 sequence (P06401 1-891)
Experimental: as §2
(§6) CJ236 cells were infected with mpPR90 (an M13 plasmid containing hPR cDNA).
(§7) Yeast cells were grown in the presence of 100 μM CuSO4. Transcriptional analysis was done as described above. Experiments were done in triplicate and transcriptional activities were normalized with respect to protein.

[5] = molecular target: T7, YEphPR-B879 truncated receptor (Homo sapiens, UniProt P06401); assay: Yeast transcription assay; format: cell-based
T7 construct: YEphPR-B879, containing a stop codon corresponding to amino acid 880; expressed in transfected cells; host or cells: Saccharomyces cerevisiae (yeast)
T7 sequence (P06401 1-879): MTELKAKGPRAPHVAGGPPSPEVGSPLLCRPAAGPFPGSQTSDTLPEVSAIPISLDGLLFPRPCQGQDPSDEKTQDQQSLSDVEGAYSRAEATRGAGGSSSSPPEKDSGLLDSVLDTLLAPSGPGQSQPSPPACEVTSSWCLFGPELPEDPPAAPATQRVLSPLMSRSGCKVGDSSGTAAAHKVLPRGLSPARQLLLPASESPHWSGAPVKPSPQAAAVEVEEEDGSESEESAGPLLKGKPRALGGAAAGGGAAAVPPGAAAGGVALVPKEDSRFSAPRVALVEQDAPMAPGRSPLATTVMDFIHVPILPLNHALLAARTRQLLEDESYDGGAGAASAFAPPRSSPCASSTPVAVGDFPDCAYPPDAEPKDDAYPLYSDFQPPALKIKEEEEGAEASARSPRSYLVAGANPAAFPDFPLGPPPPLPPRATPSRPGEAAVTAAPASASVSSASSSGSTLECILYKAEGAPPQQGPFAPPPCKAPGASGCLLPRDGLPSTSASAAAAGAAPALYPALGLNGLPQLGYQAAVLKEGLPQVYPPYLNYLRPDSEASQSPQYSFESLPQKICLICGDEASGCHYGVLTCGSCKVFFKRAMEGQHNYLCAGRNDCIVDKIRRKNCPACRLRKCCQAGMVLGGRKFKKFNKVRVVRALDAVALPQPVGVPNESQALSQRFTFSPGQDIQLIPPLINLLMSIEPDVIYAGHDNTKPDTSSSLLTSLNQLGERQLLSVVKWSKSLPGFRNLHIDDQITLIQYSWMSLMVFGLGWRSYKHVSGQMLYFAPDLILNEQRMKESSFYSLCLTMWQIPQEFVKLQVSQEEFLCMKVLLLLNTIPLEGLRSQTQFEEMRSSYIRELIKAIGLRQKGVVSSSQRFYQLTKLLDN
Experimental: as §2, §6, §7

- transcriptional activity (in words) [1]: inactive
- transcriptional activity (in words) [2]: inactive
SMILES: COc1ccc2c(c1)CCC(c1ccccc1)=C2c1ccc(OCCN2CCCC2)cc1 [nafoxidine]

- receptor activation (CAT) [3]: activated
- induction of transcription [1]: greater than 60 fold
- induction of CAT activity (891 mutant (phPR-B891)): no activity
- induction of transcription of CAT gene reporter (wild type PR (phPR-B)): 3- to 4 fold
- activation of transcription [4]: inactive
- activation of transcription [5]: inactive
SMILES: CC(=O)[C@H]1CC[C@H]2[C@@H]3CCC4=CC(=O)CC[C@]4(C)[C@H]3CC[C@]12C [progesterone]

- transcriptional activity (in words) [1]: inactive
- transcriptional activity (in words) [2]: inactive
SMILES: C[C@@H]1C[C@H]2[C@@H]3CCC4=CC(=O)C=C[C@]4(C)[C@@]3(F)[C@@H](O)C[C@]2(C)[C@@]1(O)C(=O)CO [dexamethasone]

More lines, now with the values behind:

SMILES: C[C@]12CC[C@@H]3c4ccc(O)cc4CC[C@H]3[C@@H]1CC[C@@H]2O [estradiol]
- transcriptional activity (in words) [1]: inactive
- transcriptional activity (in words) [2]: inactive

SMILES: CN(C)c1ccc(C2CC3(C)C(CCC34CCCO4)C3CCC4=CC(=O)CCC4=C23)cc1 (stereo not drawn) [Org31376, (11β,14β,17α)-4′,5′-dihydro-11-(4-dimethylaminophenyl)-[spiroestra-4,9-diene-17,2′(3′H)-furan]-3-one]
- activation of mutant receptor [2]: activated

SMILES: C[C@]12CCC(=O)C=C1CC[C@@H]1[C@@H]2[C@@H](O)C[C@@]2(C)[C@H]1CC[C@]2(O)C(=O)CO [cortisol]
- transcriptional activity (in words) [1]: inactive
- transcriptional activity (in words) [2]: inactive

SMILES: CCC(=O)[C@@]1(C)CC[C@H]2[C@@H]3CCC4=CC(=O)CCC4=C3CC[C@@]21C [R5020]
- transcriptional activity (in words) [2]: had no effect

SMILES: C[C@H]1CC2=CC(=O)CCC2=C2[C@@H]1[C@@H]1CC[C@@]3(CCCO3)[C@@]1(C)C[C@@H]2c1ccc(N(C)C)cc1 [Org31806, (7β,11β,17β)-11-(4-dimethylaminophenyl)-7-methyl-4′,5′-dihydrospiro[ester-4,9-diene-17,2′(3′H)-furan]-3-one]
- activation of mutant receptor [2]: activated
